Laboratory results taken from US10688195B2, “Polymyxin B-coated nanoparticles” (Northwestern University, priority 2016, dated 2020).

Experiments:
[1] = system: PA strain PA99; assay: Mouse PA abscess model, treatment injected at the site of infection; type: in vivo, Pseudomonas aeruginosa; details: mice, data not shown
Method: FIG. 17. AuNP-PB administration at time of infection with PA prevents abscess formation. Mice were injected subcutaneously (SC) with 2×10^6 CFU of PA strain PA99 in 25 ul of PBS, and were then immediately treated with 50 ul PBS (SC), AuNP-PB (SC, equivalent of 2 ug PB), AuNP (without PB, SC, equivalent amount), or free PB (1 ug IV). SC injections were at the site of the abscess. Abscess areas were measured at 17 hr post-infection. Each symbol represents a distinct mouse. (A) Injections 5 min post-infection; (B) Injections 2 hr post-infection.
Experiments conducted during development of embodiments herein employed a mouse PA abscess model in which the heterogenous AuNP-PB are injected directly into the site of infection. This assay has the advantage of determining whether AuNP-PB kill bacteria in vivo in the absence of PK concerns.

[2] = Serum peak concentration of free PB in mice (literature, ref. 83, and scaling); type: in vivo; details: 4 mg/kg, estimated by scaling from the 3 mg/kg dose
Method: An appropriate starting dose of free PB in mice is estimated by parameter scaling (ref 57; incorporated by reference in its entirety) to attain Cmax exposures that approximate concentrations obtained in human serum. […] Studies are initiated with a PB dose of 4 mg/kg in mice given by tail vein injection every 12 hr. Mice are monitored for 7 days for signs of toxicity (altered respiratory rate, lack of grooming, decreased activity, weight loss). The dose is increased by 1 mg/kg increments until toxicity is observed. Doses that cause more than temporary symptoms are considered the minimal toxic dose, and the next lower dose will be designated the MTD. The MTD of […] is determined in the same manner, starting with the PB molar equivalent MTD of […].

[3] = system: PA; details: free PB for PA; cited from earlier work
[4] = rats, PB alone; cited from earlier work
[5] = mice, 3 mg/kg PB dose; cited from earlier work

## polymyxin B [PB]
[1]
  Bacterial loads: below the limit of detection
[2]
  Cmax: 5.3 µg/mL
[3]
  MIC: 0.5 to 1.0 mg/L
[4]
  Mean half-life: 1.5 h
[5]
  Mean peaks (serum): ~4 mg/L
